Results reported in article PMC12040169 (PLOS Biology, 2025).

test: in vitro; conditions: human, hela cells, % viability

SMILES | viability at 28.5 h, 10 µM
COc1ccc(CNC(=O)c2cc(S(=O)(=O)N3CCCC3)c[nH]2)cc1 [CBK304601] | 102%
Cn1ccc(CNCc2c(Br)cc(F)c(F)c2N2CCCCC2)n1 [CBK304763] | 105%
C=C(C)Cn1c(Cc2ccccc2)nnc1SC(C)C [CBK200083] | 92%
COc1ccc(-c2cnc3[nH]c(=O)n(CCCN4CCOCC4)c3n2)c(OC)c1OC [CBK064249] | 109%
O=C(CN1CCC2(CC1)CN(C(=O)CO)c1ccccc12)c1ccsc1 [CBK144605T] | 86.8%
COc1ccc2[nH]c3c(c2c1)CCNC31CCN(CC(=O)C(C)(C)C)CC1 [CBK039471] | 98.1%
O=C(CCNS(=O)(=O)c1ccc(Cl)cc1)Nc1ccncc1 [CBK269244] | 99.4%
COCCNc1nc(-c2ccc3ccccc3c2)cn2ccnc12 [CBK066138] | 103%
Cc1nc(C2CCN(C(=O)c3ccn(C)n3)CC2)c2sccn12 [CBK285202] | 93.4%
COCCn1nc(C(=O)N(C)Cc2nc3ccccc3s2)ccc1=O [CBK305338] | 91.8%
NC(=O)c1ccc(-n2cc(-c3ccc(Cl)cc3)nn2)cc1 [CBK113046] | 93.4%
NCC1CCN(c2cc(C(F)(F)F)c3scc(C(=O)NCCC4=CCCCC4)c3n2)CC1 [CBK028475] | 83.2%
O=C(CSc1nc(-c2cccc([N+](=O)[O-])c2)cs1)NCC1CCCO1 (stereo not drawn) [CBK268020] | 92.8%
COc1ccc(OC)c(CN2CCN(CCCc3ccccc3)CC2)c1 [CBK264304] | 100%
Oc1cccc(OCCOc2nc3ccccc3nc2N2CCCC2)c1 [CBK115901] | 84.1%
CCc1nc2c(OCCOc3ccccc3)cccn2c1N(C=O)CC(=O)N(C)C [CBK147510] | 96.5%
Cc1ccc(N2C(=O)c3ccccc3NC23C(=O)N(C)c2ccc(Br)cc23)cc1 (stereo not drawn) [CBK103752] | 85.2%
Cc1cc(N2CCCC2)c(F)cc1CN1CCC(O)C(C)C1 (stereo not drawn) [CBK282963] | 91.6%
O=C1Cc2ccccc2C2(CCN(C(=O)c3cccc4cccc(C(=O)O)c34)CC2)N1 [CBK047313] | 93.2%
N#Cc1ccccc1N1CCN(c2cncc(-c3cccc4cccnc34)n2)CC1 [CBK037366] | 102%
N#Cc1ccc(-c2cc(NCCc3ccncc3)ncn2)cc1 [CBK037787] | 98.1%
CC(OC(=O)N1CCN(c2ccccc2)CC1)c1ccccc1 (stereo not drawn) [CBK200243] | 104%

SMILES | viability at 28.5 h, 10 µM
CC(Sc1nnc2[nH]c3ccccc3n12)C(=O)O (stereo not drawn) [CBK265822] | 99.7%
CC1(C)CC(=O)c2sc(NC(=O)c3cccc(C(F)(F)F)c3)nc2C1 [CBK019941] | 94.2%
COc1ccc(C)cc1NC(=O)NC1CCN(Cc2ccccc2)CC1 [CBK267095] | 99.2%
CC1CCN(C(=O)CSc2ccc3nnc(-c4ccccc4)n3n2)CC1 [CBK287512] | 77.9%
S=C(NCCC(c1ccccc1)c1ccccc1)NC1CCCCC1 [CBK264007] | 96.3%
CN(C)c1cccc(Nc2cc(-c3ccco3)ncn2)c1 [CBK091014] | 87.5%
Cc1nc(NS(=O)(=O)Cc2ccccc2)sc1C(=O)O [CBK045552] | 110%
COc1cc(/C=C/C(=O)O)ccc1OCC(=O)Nc1ccccc1 [CBK265695] | 101%
CN1CCN(C(=O)CCCN2C(=O)c3cccc4cccc(c34)C2=O)CC1 [CBK262383] | 96.9%
Cc1cc(N(C)C)cc(C2CCCN(C(=O)c3cccc(F)c3)C2)n1 (stereo not drawn) [CBK282003] | 95.1%
CN1CCN(CCOC(=O)NCc2ccnc3ccccc23)CC1 [CBK200148] | 94%
COc1ccccc1CNCCNC(=O)OC(C)(C)C [CBK056694] | 105%
COc1ccc(-c2cn[nH]c2-c2ccc(OCCN3CCOCC3)cc2O)cc1 [CBK288112] | 97%
Clc1ccc(SCCCSc2ncccn2)cc1 [CBK266400] | 96.8%
COc1ccc(C(C)c2cc3c(cc2O)OCO3)c(F)c1 (stereo not drawn) [CBK200101] | 98.1%
C=CCn1c(SCc2nnc(-c3ccccc3)o2)nnc1C(O)c1ccccc1 (stereo not drawn) [CBK267368] | 110%
O=C1C2CCCCC2C(=O)N1c1ccc(Oc2ccc(Br)cc2)cc1 (stereo not drawn) [CBK263531] | 116%
Cn1c(Cc2ccc(Cl)cc2)nnc1SCc1nc2ccccc2c(=O)n1-c1cccc(C(F)(F)F)c1 [CBK268425] | 112%
Cc1[nH]nc(Nc2ccc(C(=O)O)cc2)c1[N+](=O)[O-] [CBK262726] | 80%
CCNC(=O)N1CC2(CCN(CCOc3ccccc3)CC2)c2ccccc21 [CBK122701] | 93.9%
COc1ccc(C(=O)Nc2ccc(S(=O)(=O)Nc3nccs3)cc2)cc1I [CBK263880] | 92.7%
CCCCOc1ccc(Oc2ncc(C(F)(F)F)cc2Cl)cc1 [CBK161629] | 94.4%

SMILES | viability at 28.5 h, 10 µM
COc1ccccc1CC(=O)NNC(=O)c1ccco1 [CBK262956] | 91.6%
COC(=O)CN1C(=O)S/C(=C/c2ccc(OCc3cccc(C(=O)O)c3)c(Cl)c2)C1=O [CBK265262] | 90.2%
CCCc1cc(O)nc(SC(C)C(=O)N2CCOCC2)n1 (stereo not drawn) [CBK305030] | 86%
COc1ccc(CCC(=O)Nc2ncccc2OCCCC#N)cc1 [CBK304957] | 105%
COc1ccccc1CN(CCCn1ccnc1)Cc1ccco1 [CBK283116] | 111%
COc1ccc(C(C)C)cc1-c1cncc(NCC(c2cccnc2)N(C)C)n1 (stereo not drawn) [CBK037132] | 110%
COC(=O)C(C)(C)C1c2cc(Br)ccc2OC(=O)C1C(=O)c1ccccc1 (stereo not drawn) [CBK266690] | 102%
Cc1nn(C)c(Sc2ccccc2)c1[N+](=O)[O-] [CBK002937] | 97.9%
O=C(c1ccco1)N1CCCC(n2c(=O)oc3ccc(Cl)cc32)C1 (stereo not drawn) [CBK282892] | 91.5%
Cc1sc2nc(SCc3cc(O)[nH]n3)nc(N)c2c1C [CBK264585] | 88.6%
Nc1ncn(CC(O)CO)c2nc(N3CCOCC3)nc1-2 (stereo not drawn) [CBK009231] | 90.8%
O=C(O)c1cc(C(=O)O)cc(N2C(=O)c3ccc(S(=O)(=O)c4ccc5c(c4)C(=O)N(c4cc(C(=O)O)cc(C(=O)O)c4)C5=O)cc3C2=O)c1 [CBK261336] | 100%
Cn1c(=O)oc2cc(S(=O)(=O)Nc3cccc(CCc4ccccn4)c3)ccc21 [CBK286357] | 102%
COc1ncccc1C(=O)N1CCN(CCc2ccccc2)CC1 [CBK200226] | 88.4%
O=C(c1cccc2ncccc12)N1CC[C@@H](c2ccccc2)[C@H](O)C1 [CBK283716] | 84.3%
O=C(Cc1ccc(Cl)c(Cl)c1)N1CCC2(CCN(C(=O)Cc3c[nH]c4ccccc34)C2)C1 (stereo not drawn) [CBK131426] | 106%
NC(=O)c1cccc(-c2cnc(N)c(NCc3ccco3)n2)c1 [CBK063660] | 116%
O=C(O)c1cccc(Sc2nccc(C(F)(F)F)n2)c1 [CBK115957] | 90.2%
CC(=O)NCCN1CC[C@H]2CN(C(=O)c3cc(C)on3)CC[C@H]2CC1=O [CBK288785] | 103%
Cc1nc(C(=O)N(CCO)Cc2ccccc2)cs1 [CBK304810] | 105%
O=C(CC1c2ccccc2Oc2ccccc21)Nc1ccc(Cc2ccncc2)cc1 [CBK263271] | 91.6%
COCCNC(=O)c1cc(-c2ccccc2C)cnc1NS(C)(=O)=O [CBK106422] | 82.9%

SMILES | viability at 28.5 h, 10 µM
O=C(O)c1oc2ccccc2c1CSc1ccccn1 [CBK286981] | 89.5%
CNc1nc(NC(C#N)c2ccccc2)ncc1N (stereo not drawn) [CBK174783] | 107%
O=C(c1ccccc1F)N1CCC(n2cnc3cccnc32)CC1 [CBK283937] | 87.5%
O=C(Nc1ccc2ncccc2c1)c1cccc(F)c1Cl [CBK159800] | 85.9%
COc1ccc(CCN2C(=O)/C(=C\c3c(NCCO)nc4c(C)cccn4c3=O)SC2=S)cc1 [CBK265566] | 79.9%
O=C(/C=C/c1ccc2c(c1)OCO2)N1CCCC2(CCN(C(=O)c3ccoc3)C2)C1 (stereo not drawn) [CBK131622] | 92.3%
COC(=O)CCCC(=O)n1ccn(-c2cccc(C(F)(F)F)c2)c1=O [CBK106580] | 87.6%
Cc1ccccc1NCC(=O)N/N=C\c1cc(Br)c(O)c(Br)c1 [CBK262120] | 87.7%
O=C(NCCSCc1ccc(Cl)cc1Cl)c1ccc(Br)cc1 [CBK264733] | 114%
CCOC(=O)N1CCN(CC2CCCCN2)CC1 (stereo not drawn) [CBK022780G] | 83.4%
O=c1[nH]c(=S)[nH]c2c1CCC2 [CBK113252] | 92.4%
Fc1ccc(CN2CCC3(C2)c2[nH]c4ccccc4c2CCN3Cc2ccc(F)cc2)cc1 (stereo not drawn) [CBK059467] | 85.8%
c1coc(COc2cncc(N3CCNCC3)n2)c1 [CBK013393] | 94.2%
COc1ncc(-c2nccnc2OCc2cccs2)c(OC)n1 [CBK106750] | 102%
c1ccc2c(c1)CCCN2Cc1ncc[nH]1 [CBK138332] | 89.2%
CC(C)c1ccc(S(=O)(=O)NCc2ccc(F)c(F)c2F)cc1 [CBK044717] | 102%
CCOc1ccc(-c2nnn(CC(N)=O)n2)cc1 [CBK068283] | 110%
CCc1ccc(CCC(=O)N2CCN(S(=O)(=O)c3sc(C(=O)O)c(C)c3C(=O)O)CC2)cc1 [CBK297138] | 111%
Cc1ccccc1-c1nnc(NC(=O)c2ccc(N3C(=O)CCC3=O)cc2)s1 [CBK287332] | 85.9%
COc1ccc(NC(=O)N2CC[C@H]3CC(=O)N(CCN4CCNC4=O)CC[C@H]3C2)cc1 [CBK288797] | 86.8%
CCN1CCN(c2ccc(NC(=S)NC(=O)c3ccccc3Br)cc2)CC1 [CBK268583] | 102%

same assay, conditions: human, hela cells, % viability, bulk resorufin, single well

SMILES | viability at 28.5 h, 10 µM
O=C1NC(=S)NC(=O)C1=NNc1ccccc1C(=O)O [CBK262231] | 99.6%
O=C(O)Cn1cc(C(=O)c2cccs2)c2ccccc21 [CBK287110] | 91.9%
CCn1nc(-c2ccccc2)nc2c(=O)n(C)c(=O)nc1-2 [CBK000921] | 92.1%
